These results are taken from patent publication US5698516A, “Biologically active vasopressin analogues” (Ferring B.V., priority 1993, dated 1997).

Data set [1] has as its system rat. As to the kind of experiment: Antidiuretic activity (ADiv), rat model, urine conductivity after intravenous challenge. The data set is classed as in vivo. The conditions noted are these: conductivity of urine. As to the method: a) Antidiuretic activity (ADiv)
The antidiuretic activity of the peptides was determined in the well established rat model which is based on continuous measurement of the conductivity of the urine produced by the rat after an intravenous challenge with peptide (J. Medicinal Chem. (1978), 21, 352-356).

The conditions of data set [2]: rat, in vivo.
Description: (§1) b) Gastrointestinal absorption of peptides [(FAD)V ]
(§2) Absorption of peptides administered in the intestine through a surgically introduced plastic tube (10 cm distal of pylorus) was determined by comparing the antidiuretic effect (area under curve) after intestinal administration with the antidiuretic effect after intravenous adminstration.
The conditions of data set [3]: rat, in vivo. This is another data set of the same source.
Description: (§3) c) Intranasal absorption of peptides (FAD)in
(§4) Absorption of peptides administered in a volume of 30 μl in the nasal cavity through a PE20 cannula attached to a Hamilton syringe (introduced 10 mm without surgery), was determined by comparing the antidiuretic effect (area under curve) after intranasal administration with the antidiuretic effect after intravenous administration.
For data set [4] the following is noted: in vivo; cited from earlier work.
Data set [5] is described as follows: Intranasal absorption of peptides (FAD)in, intranasal vs intravenous antidiuretic effect. Conditions: rat, 30 μl in nasal cavity; antidiuretic effect AUC vs intravenous.
Description: as §3, §4
A short description of data set [6]: Gastrointestinal absorption of peptides (FAD)V, intestinal vs intravenous antidiuretic effect. The conditions noted are these: rat, intestinal administration via tube 10 cm distal of pylorus; antidiuretic effect AUC vs intravenous.
Description: as §1, §2

Each structure is given as a SMILES string. Like-named read-outs stand apart in the source and are kept apart here. Numbered stars: 1 amine (or outer) side, 2 acyl side, 3 side chain; on linkers, the order of the positions; unused ones are H or OH. Bridge positions count the residues as written; N and C are the ends. Square brackets hold non-standard residues; d marks the D form. Peptide text beside a SMILES is read from it. Hyp = O=C(O)[C@@H]1C[C@@H](O)CN1; 2Thi = N[C@@H](Cc1cccs1)C(=O)O; d2Thi = N[C@H](Cc1cccs1)C(=O)O; Iva = CC[C@](C)(N)C(=O)O; X1 = O=C(CCC[*:2])[*:1]

With `NC(=O)CC[C@@H]1NC(=O)[C@H](Cc2ccccc2)NC(=O)[C@H](Cc2ccc(O)cc2)NC(=O)CCSSC[C@@H](C(=O)N2CCC[C@H]2C(=O)N[C@H](CCCN=C(N)N)C(=O)NCC(N)=O)NC(=O)[C@H](CC(N)=O)NC1=O` [DDAVP, 1-desamino-8-D-arginine vasopressin], the “ADiv (antidiuretic activity)” value in data set [1] amounted to 1100 IU/μmol. Besides, the “(FAD)V (gastrointestinal absorption)” value in data set [2] worked out at 0.09%. Moreover, the “(FAD)in (intranasal absorption)” value in data set [3] was found to be 8%. Besides, the “decrease of bioavailability by intranasal route” value in data set [4] was “about 10 times”.
For `CC[C@]1(C)NC(=O)[C@H](Cc2cccs2)NC(=O)[C@@H](Cc2ccccc2)NC(=O)CCCSC[C@@H](C(=O)N2C[C@H](O)C[C@H]2C(=O)N[C@H](CCCNC(=N)N)C(=O)NCC(N)=O)NC(=O)[C@H](CC(N)=O)NC1=O` [Ex. 1] ([dF][2Thi][Iva]NC[Hyp][dR]G-NH2; linker N-5 via X1), the “(FAD)in (intranasal absorption)” value in data set [5] worked out at 42%. The “(FAD)V (gastrointestinal absorption)” value in data set [6] was found to be 1.3%.
The corresponding values for `CC(C)[C@@H]1NC(=O)[C@H](Cc2cccs2)NC(=O)[C@@H](Cc2ccccc2)NC(=O)CCCSC[C@@H](C(=O)N2C[C@H](O)C[C@H]2C(=O)N[C@H](CCCNC(=N)N)C(=O)NCC(N)=O)NC(=O)[C@H](CC(N)=O)NC1=O` [Ex. 2] ([dF][2Thi]VNC[Hyp][dR]G-NH2; linker N-5 via X1) are 20% and 1.2%.
In the case of `CC(C)[C@@H]1NC(=O)[C@H](Cc2ccccc2)NC(=O)[C@@H](Cc2ccc(O)cc2)NC(=O)CCCSC[C@@H](C(=O)N2CCC[C@H]2C(=O)N[C@H](CCCNC(=N)N)C(=O)NCC(N)=O)NC(=O)[C@H](CC(N)=O)NC1=O` [Ex. 3, reference compound] ([dY]FVNCP[dR]G-NH2; linker N-5 via X1), the “(FAD)in (intranasal absorption)” value in data set [5] was found to be 5%. Besides, the “(FAD)V (gastrointestinal absorption)” value in data set [6] amounted to 0.4%.
`CC[C@]1(C)NC(=O)[C@H](Cc2cccs2)NC(=O)[C@@H](Cc2cccs2)NC(=O)CCCSC[C@@H](C(=O)N2C[C@H](O)C[C@H]2C(=O)N[C@H](CCCNC(=N)N)C(=O)NCC(N)=O)NC(=O)[C@H](CC(N)=O)NC1=O` [Ex. 4] ([d2Thi][2Thi][Iva]NC[Hyp][dR]G-NH2; linker N-5 via X1): the “(FAD)in (intranasal absorption)” value in data set [5] is listed as 22%. In data set [6], the “(FAD)V (gastrointestinal absorption)” value is on record as 2.5%.
The matching figures for `CC[C@]1(C)NC(=O)[C@H](Cc2cccs2)NC(=O)[C@@H](Cc2ccc(O)cc2)NC(=O)CCCSC[C@@H](C(=O)N2C[C@H](O)C[C@H]2C(=O)N[C@H](CCCNC(=N)N)C(=O)NCC(N)=O)NC(=O)[C@H](CC(N)=O)NC1=O` [Ex. 5] ([dY][2Thi][Iva]NC[Hyp][dR]G-NH2; linker N-5 via X1): 17% and 1.4%.
The corresponding values for `CSCC[C@@H]1NC(=O)[C@@H](Cc2cccs2)NC(=O)CCCSC[C@@H](C(=O)N2C[C@H](O)C[C@H]2C(=O)N[C@H](CCCNC(=N)N)C(=O)NCC(N)=O)NC(=O)[C@H](CC(N)=O)NC(=O)[C@H](C(C)C)NC1=O` [Ex. 6] ([d2Thi]MVNC[Hyp][dR]G-NH2; linker N-5 via X1) are 22% and 1.6%.
